Values of other authors, collected in US20210205199A1, “Dermatological Cosmetic Composition Comprising an SDKP Peptide or an Analog Thereof” (RPM Dermatologie, priority 2016, published 2021).

Conditions: result in words; background

**Q.** Which results are given for “acetyl-serine-aspartic acid-lysine-proline-OH [Ac-SDKP-OH]”?
**A.** Sensitivity to enzymatic hydrolysis: very sensitive to enzymatic hydrolysis; Stability to hydrolysis: hydrolyzes very easily
